Assay results: ChEMBL document CHEMBL5523723, “G Protein-Coupled Estrogen Receptor-Mediated Anti-Inflammatory and Mucosal Healing Activity of a Trimethylpyridinol Analogue in Inflammatory Bowel Disease” (J Med Chem, 2024)
Calls of active or inactive are those of the source. No cut-off for these calls is given here.

Assays:
HT-29 [1] = assay: (§1) Mucosal healing effect in TNFalpha induced human HT-29 cells assessed as decrease in epithelial permeability by measuring reduced […] FITC-dextran 4 level at 0.1 to 10 uM pretreated for 3 hrs followed by TNFalpha addition and subsequent FD4 addition and measured after 2 hrs by fluorescence based assay; assay type: functional, cell-based; conditions: dose 0.1-10 µM, time 5.0 hrs
HT-29 [2] = assay: as §1, with “at” for “at 0.1 to”, “pretreated with compound and G15” for “pretreated”; assay type: functional, cell-based; conditions: time 5.0 hrs
HT-29 [3] = assay: Induction of apoptosis in human HT-29 cells assessed as viable cells at 1 uM incubated for 24 hrs by Annexin V FITC/PI staining based flow cytometry analysis ( Rvb = 99 +/- 0.1%); assay type: functional; conditions: read-out: Activity
HT-29 [4] = assay: Induction of apoptosis in human HT-29 cells assessed as early apoptotic cells at 1 uM incubated for 24 hrs by Annexin V FITC/PI staining based flow cytometry analysis ( Rvb = 0%); assay type: functional
HT-29 [5] = assay: Induction of apoptosis in human HT-29 cells assessed as late apoptotic cells at 1 uM incubated for 24 hrs by Annexin V FITC/PI staining based flow cytometry analysis ( Rvb = 0.7%); assay type: functional
HT-29 [6] = assay: Induction of apoptosis in human HT-29 cells assessed as necrotic cells at 1 uM incubated for 24 hrs by Annexin V FITC/PI staining based flow cytometry analysis ( Rvb = 0.2%); assay type: functional
HT-29 [7] = assay: Induction of apoptosis in human HT-29 cells assessed as viable cells at 5 uM incubated for 24 hrs by Annexin V FITC/PI staining based flow cytometry analysis ( Rvb = 99 +/- 0.1%); assay type: functional; conditions: read-out: Activity
HT-29 [8] = assay: Induction of apoptosis in human HT-29 cells assessed as early apoptotic cells at 5 uM incubated for 24 hrs by Annexin V FITC/PI staining based flow cytometry analysis ( Rvb = 0%); assay type: functional
HT-29 [9] = assay: Induction of apoptosis in human HT-29 cells assessed as late apoptotic cells at 5 uM incubated for 24 hrs by Annexin V FITC/PI staining based flow cytometry analysis ( Rvb = 0.7%); assay type: functional
HT-29 [10] = assay: Induction of apoptosis in human HT-29 cells assessed as necrotic cells at 5 uM incubated for 24 hrs by Annexin V FITC/PI staining based flow cytometry analysis ( Rvb = 0.2%); assay type: functional
HT-29 [11] = assay: Induction of apoptosis in human HT-29 cells assessed as viable cells at 10 uM incubated for 24 hrs by Annexin V FITC/PI staining based flow cytometry analysis ( Rvb = 99 +/- 0.1%); assay type: functional; conditions: read-out: Activity
HT-29 [12] = assay: Induction of apoptosis in human HT-29 cells assessed as early apoptotic cells at 10 uM incubated for 24 hrs by Annexin V FITC/PI staining based flow cytometry analysis ( Rvb = 0%); assay type: functional
HT-29 [13] = assay: Induction of apoptosis in human HT-29 cells assessed as late apoptotic cells at 10 uM incubated for 24 hrs by Annexin V FITC/PI staining based flow cytometry analysis ( Rvb = 0.7%); assay type: functional
HT-29 [14] = assay: Induction of apoptosis in human HT-29 cells assessed as necrotic cells at 10 uM incubated for 24 hrs by Annexin V FITC/PI staining based flow cytometry analysis ( Rvb = 0.2%); assay type: functional
U-937 [15] = assay: Induction of apoptosis in human U-937 cells assessed as viable cells at 1 uM incubated for 24 hrs by Annexin V FITC/PI staining based flow cytometry analysis ( Rvb = 95.2 +/- 0.4%); assay type: functional; conditions: read-out: Activity
U-937 [16] = assay: Induction of apoptosis in human U-937 cells assessed as early apoptotic cells at 1 uM incubated for 24 hrs by Annexin V FITC/PI staining based flow cytometry analysis ( Rvb = 0.6 +/- 0.1 %); assay type: functional
U-937 [17] = assay: Induction of apoptosis in human U-937 cells assessed as late apoptotic cells at 1 uM incubated for 24 hrs by Annexin V FITC/PI staining based flow cytometry analysis ( Rvb = 4 +/- 0.2%); assay type: functional
U-937 [18] = assay: Induction of apoptosis in human U-937 cells assessed as necrotic cells at 1 uM incubated for 24 hrs by Annexin V FITC/PI staining based flow cytometry analysis ( Rvb = 0.2 +/- 0.1%); assay type: functional
U-937 [19] = assay: Induction of apoptosis in human U-937 cells assessed as viable cells at 5 uM incubated for 24 hrs by Annexin V FITC/PI staining based flow cytometry analysis ( Rvb = 95.2 +/- 0.4%); assay type: functional; conditions: read-out: Activity
U-937 [20] = assay: Induction of apoptosis in human U-937 cells assessed as early apoptotic cells at 5 uM incubated for 24 hrs by Annexin V FITC/PI staining based flow cytometry analysis ( Rvb = 0.6 +/- 0.1 %); assay type: functional
U-937 [21] = assay: Induction of apoptosis in human U-937 cells assessed as late apoptotic cells at 5 uM incubated for 24 hrs by Annexin V FITC/PI staining based flow cytometry analysis ( Rvb = 4 +/- 0.2%); assay type: functional
U-937 [22] = assay: Induction of apoptosis in human U-937 cells assessed as necrotic cells at 5 uM incubated for 24 hrs by Annexin V FITC/PI staining based flow cytometry analysis ( Rvb = 0.2 +/- 0.1%); assay type: functional
U-937 [23] = assay: Induction of apoptosis in human U-937 cells assessed as viable cells at 10 uM incubated for 24 hrs by Annexin V FITC/PI staining based flow cytometry analysis ( Rvb = 95.2 +/- 0.4%); assay type: functional; conditions: read-out: Activity
U-937 [24] = assay: Induction of apoptosis in human U-937 cells assessed as early apoptotic cells at 10 uM incubated for 24 hrs by Annexin V FITC/PI staining based flow cytometry analysis ( Rvb = 0.6 +/- 0.1 %); assay type: functional
U-937 [25] = assay: Induction of apoptosis in human U-937 cells assessed as late apoptotic cells at 10 uM incubated for 24 hrs by Annexin V FITC/PI staining based flow cytometry analysis ( Rvb = 4 +/- 0.2%); assay type: functional
U-937 [26] = assay: Induction of apoptosis in human U-937 cells assessed as necrotic cells at 10 uM incubated for 24 hrs by Annexin V FITC/PI staining based flow cytometry analysis( Rvb = 0.2 +/- 0.1%); assay type: functional
[27] = Inhibition of IL6 induced adhesion of TPA treated human U-937 cells to human HT-29 cells at 1 uM pretreated with HT-29 for 1 hr followed by U-937 addition along with IL6 stimulation for 3 hrs by fluorescence based microplate reader assay relative to control; assay type: functional; conditions: time 4 hrs
U-937 [28] = assay: Inhibition of TNFalpha induced adhesion of TPA treated human U-937 cells to human HT-29 cells at 1 uM pretreated with HT-29 for 1 hr followed by U-937 addition along with TNFalpha stimulation for 3 hrs by fluorescence based microplate reader assay relative to control; assay type: functional; conditions: time 4 hrs
HT-29 [29] = assay: Inhibition of TNFalpha induced nuclear translocation of NF-kappaB in human HT-29 cells at 10 uM pretreated with for 3 hrs followed by TNFalpha addition by Western blotting analysis; assay type: functional, cell-based
HT-29 [30] = assay: Inhibition of TNFalpha induced nuclear translocation of p-STAT3 in human HT-29 cells at 10 uM pretreated with for 3 hrs followed by TNFalpha addition by Western blotting analysis; assay type: functional, cell-based
HT-29 [31] = assay: as §1, with “at” for “at 0.1 to”, “pretreated with compound and G1” for “pretreated”; assay type: functional, cell-based; conditions: time 5.0 hrs
Rattus norvegicus [32] = assay: Antiinflammatory activity against TNBS-induced colitis in Sprague-Dawley rat model assessed as recovery of body weight at 300 mg/kg, po administered for 5 days; assay type: functional; conditions: time 5 day
Rattus norvegicus [33] = assay: Antiinflammatory activity against TNBS-induced colitis in Sprague-Dawley rat model assessed as recovery of colon weight at 300 mg/kg, po administered for 5 days; assay type: functional; conditions: time 5 day
Mus musculus [34] = assay: Antiinflammatory activity against DSS-induced chronic colitis in C57BL/6N/Crl mouse model assessed as recovery of body weight at 300 mg/kg, po administered daily 6 days per week for 5 weeks; assay type: functional
Mus musculus [35] = assay: Antiinflammatory activity against DSS-induced chronic colitis in C57BL/6N/Crl mouse model assessed as recovery of colon weight at 300 mg/kg, po administered daily 6 days per week for 5 weeks; assay type: functional

Brc1cc2c(cc1[C@@H]1Nc3ccccc3[C@@H]3C=CC[C@@H]31)OCO2
Activity (HT-29 [1]): inactive | Activity (HT-29 [2]): inactive | viability at 1 µM (HT-29 [3]): 86.4% | Activity (HT-29 [4]): 1.6% | Activity (HT-29 [5]): 10.4% | Activity (HT-29 [6]): 1.6% | viability at 5 µM (HT-29 [7]): 84.2% | Activity (HT-29 [8]): 1% | Activity (HT-29 [9]): 13.1% | Activity (HT-29 [10]): 1.6% | viability at 10 µM (HT-29 [11]): 79.7% | Activity (HT-29 [12]): 2.4% | Activity (HT-29 [13]): 17.1% | Activity (HT-29 [14]): 0.7% | viability at 1 µM (U-937 [15]): 79.6% | Activity (U-937 [16]): 6.8% | Activity (U-937 [17]): 13.1% | Activity (U-937 [18]): 0.5% | viability at 5 µM (U-937 [19]): 74.6% | Activity (U-937 [20]): 6.5% | Activity (U-937 [21]): 18.3% | Activity (U-937 [22]): 0.7% | viability at 10 µM (U-937 [23]): 65.7% | Activity (U-937 [24]): 6.2% | Activity (U-937 [25]): 27.9% | Activity (U-937 [26]): 0.3%

Cc1nc(NC(=O)c2ccc(C(C)(C)C)cc2)c(C)c(C)c1O
inhibition at 1 µM [27]: 29.4%

COc1ccc(C(=O)Nc2nc(C)c(O)c(C)c2C)cc1
inhibition at 1 µM [27]: 6.5%

Cc1nc(NC(=O)c2ccccc2Cl)c(C)c(C)c1O
inhibition at 1 µM (U-937 [28]): 7.9% | inhibition at 1 µM [27]: 15%

Cc1nc(NC(=O)c2c(-c3ccccc3)noc2C)c(C)c(C)c1O
inhibition at 1 µM (U-937 [28]): 18.8% | inhibition at 1 µM [27]: 37.8%

Cc1ccc2c(Cl)c(C(=O)Nc3nc(C)c(O)c(C)c3C)sc2c1
inhibition at 1 µM [27]: 8.7%

Cc1nc(NC(=O)c2cc3ccccc3s2)c(C)c(C)c1O
inhibition at 1 µM [27]: 27%

Cc1nc(NC(=O)c2ccoc2)c(C)c(C)c1O
inhibition at 1 µM (U-937 [28]): 60.3% | inhibition at 1 µM [27]: 54.1%

Cc1nc(NC(=O)c2cccs2)c(C)c(C)c1O
inhibition at 1 µM [27]: 61.6%

Cc1nc(NC(=O)c2ccc3ccccc3c2)c(C)c(C)c1O
inhibition at 1 µM (U-937 [28]): 42.9% | inhibition at 1 µM [27]: 33.1%

CC(=O)c1ccc2c(c1)[C@@H]1C=CC[C@@H]1[C@H](c1cc3c(cc1Br)OCO3)N2
inhibition (HT-29 [29]): Active | inhibition (HT-29 [30]): Active | Activity (HT-29 [1]): Active | Activity (HT-29 [31]): Active | viability at 1 µM (HT-29 [3]): 80.9% | Activity (HT-29 [4]): 1% | Activity (HT-29 [5]): 16.9% | Activity (HT-29 [6]): 1.3% | viability at 5 µM (HT-29 [7]): 66.6% | Activity (HT-29 [8]): 2.9% | Activity (HT-29 [9]): 27.9% | Activity (HT-29 [10]): 2.7% | viability at 10 µM (HT-29 [11]): 61.4% | Activity (HT-29 [12]): 4.3% | Activity (HT-29 [13]): 33.3% | Activity (HT-29 [14]): 1% | viability at 1 µM (U-937 [15]): 76.2% | Activity (U-937 [16]): 7% | Activity (U-937 [17]): 16.2% | Activity (U-937 [18]): 0.6% | viability at 5 µM (U-937 [19]): 66.6% | Activity (U-937 [20]): 5.5% | Activity (U-937 [21]): 28.2% | Activity (U-937 [22]): 0.3% | viability at 10 µM (U-937 [23]): 53.2% | Activity (U-937 [24]): 7.2% | Activity (U-937 [25]): 39.2% | Activity (U-937 [26]): 0.4%

O=C(O)c1cc(/N=N/c2ccc(S(=O)(=O)Nc3ccccn3)cc2)ccc1O [SULFASALAZINE]
Activity (Rattus norvegicus [32]): 58.3% | Activity (Rattus norvegicus [33]): 78.4% | Activity (Mus musculus [34]): 22.8% | Activity (Mus musculus [35]): 66.9%

Cc1cccc(C(=O)Nc2nc(C)c(O)c(C)c2C)c1
inhibition at 1 µM (U-937 [28]): 63.9% | inhibition at 1 µM [27]: 48.9%

Nc1ccc(O)c(C(=O)O)c1 [MESALAMINE]
inhibition at 1 µM (U-937 [28]): 9.9% | inhibition at 1 µM [27]: 1.7%

Cc1nc(NC(=O)c2ccc(Cl)cc2Cl)c(C)c(C)c1O
inhibition at 1 µM (U-937 [28]): 58.6% | inhibition at 1 µM [27]: 46.4%
